Measured values: patent US20240285627A1, “DRUG COMBINATION OF FAK INHIBITOR AND IMMUNOGENIC CELL DEATH INDUCER AND USE THEREOF” (INXMED (NANJING) CO., LTD., priority 2022, published 2024)

Legend:
[1] = system: Mouse colon cancer CT26 cells; experiment: CT26 cells with IN10018 and MRTX1133: microscope and flow cytometry for CRT / Annexin V (Example 4); type: cell-based; conditions: CT26, 48 hours; IN10018 5 μM, MRTX1133 6 μM
Experimental: (§1) Mouse colon cancer CT26 cells (Insitute of Biochemistry and Cell Biology) were cultured with RPMI-1640 (Shanghai Basalmedia, classification number: L210KJ, batch number: F210916)+10% FBS (Gibco, classification number: 10099-141c, batch number: 2158737cp) and passaged twice. When the cells were in good condition, the culture solution was placed in a 24-well plate. After the cells were spread for 24 hours, four groups were set up, wherein the first group was a control group, and the culture medium was added; the second group was IN10018 with a concentration of 5 μM; the third group was MRTX1133 (SuperLan Chemical Co., Ltd., classification number: P2621928-55-8, batch number: 131005) with a concentration of 6 μM; and the fourth group was IN10018 (5 μM) combined with MRTX1133 (6 μM). The drugs were mixed and the mixture was cultured in a 5% CO2 incubator at 37° C. for 48 hours.
(§2) After 48 hours of drug action, the cells were observed under a microscope and photographed, and the photos were kept. Then the cells were collected, subjected to flow analysis, and washed twice with flow buffer (PBS+2% FBS). 0.5 μl of AF647 anti-Calreticulin antibody (abcam, classification number: ab196159, batch number: CR33676773) was added to each well and fully mixed. […] The mixture was cultured at room temperature in the dark for 15 minutes, and then analyzed by flow cytometry.

Mouse lung cancer KPL = experiment: KPL cells with IN10018 and MRTX1133: microscope and flow cytometry for CRT / Annexin V (Example 6); type: cell-based; conditions: 48 hours, IN10018 10 μM, MRTX1133 15 μM
Experimental: as §1, with “Mouse lung” for “Mouse colon”, “cancer KPL” for “cancer CT26 cells”, “of 10” for “of 5”, “of 15” for “of 6”, “IN10018 (10” for “IN10018 (5”, “MRTX1133 (15” for “MRTX1133 (6”
as §2

[2] = system: mouse colon cancer CT26 cells allograft tumor; experiment: In vivo anti-tumor efficacy, BALB/c mouse subcutaneous allograft tumor model of CT26 cells (Example 9)
Experimental: Mouse colorectal cancer cell CT26 (from Nanjing Kebai Biotechnology Co., Ltd., article number: CBP60043) was maintained and passaged by InxMed (Nanjing) Co., Ltd. Cells were cultured in monolayer in vitro, and the culture conditions were RPMI-1640 medium with 10% fetal bovine serum and 37° C. 5% CO2 incubator. Trypsin-EDTA was used for routine digestion and passage two or three times a week. When the cells were in exponential growth period and the saturation reached 80%-90%, the cells were collected, counted and inoculated.
0.1 mL of cell suspension containing 3×10^5 cells was subcutaneously inoculated on the right back of each mouse. When the tumor volume reached about ˜57 mm^3 (13th day after cell inoculation), mice were randomly divided into groups according to the tumor volume and administered.
The assay index was to investigate whether the tumor growth is inhibited, delayed or cured. The diameter of tumor was measured with vernier caliper, 2˜3 times a week. The formula for calculating the tumor volume is: V=0.5×a×b^2, where a and b represent the long and short diameters of the tumor respectively.
The anti-tumor effect of the compound was evaluated by TGI (%), which reflected the tumor growth inhibition rate. According to the tumor volume on the first day after grouping, the tumor growth inhibition rate TGI (%) was calculated according to the following formula: […]
Statistical analysis was based on the tumor volume at the end of the assay and analyzed by Prism Graphpad software. The comparison between multiple groups was analyzed by Two-way ANOVA and Fisher's LSD test. P<0.05 is considered to have significant difference.

| Structure (SMILES) | cell state under a microscope [1] | cell state under a microscope (Mouse lung cancer KPL) | Tumor volume on Day 0 ([2]; Day 0, at grouping, mean ± SD) [mm^3] | TGI (%) ([2]; Day 14, MRTX1133 5 mg/kg IP QD, IN10018 25 mg/kg PO QD, TIGIT 3 mg/kg IP BIW) | Tumor volume on Day 14 ([2]; Day 14 after group administration, MRTX1133 5 mg/kg IP QD, IN10018 25 mg/kg PO QD, TIGIT 3 mg/kg IP BIW, mean ± SD) [mm^3] | Tumor volume on Day 16 ([2]; Day 16 after group administration, MRTX1133 5 mg/kg IP QD, IN10018 25 mg/kg PO QD, TIGIT 3 mg/kg IP BIW, mean ± SD) [mm^3] |
| --- | --- | --- | --- | --- | --- | --- |
| COc1cc(C(=O)NC2CCN(C)CC2)c(F)cc1Nc1ncc(C(F)(F)F)c(Oc2cccc3c2C(=O)N(C)C3)n1 [IN10018] | good | good | – | – | – | – |
| C#Cc1c(F)ccc2cc(O)cc(-c3ncc4c(N5CC6CCC(C5)N6)nc(OC[C@@]56CCCN5C[C@H](F)C6)nc4c3F)c12 [MRTX1133] | poor | poor | 57.4 ± 10.8 | 63.2 | 1067.8±302.1 | 1672.1±548.1 |
